Experimental data reported in patent publication US20040247537A1, “Uv-screening peptide-flavonoid conjugates” (priority 2001, published 2004).
Values joined by “and” are separate entries in the source; they are usually repeats but may differ in a detail not shown here. Equal entries are not always repeated.

Assays:
[1] = test system: skin (buttocks) of three volunteers, epidermis; test: Penetration depth into the skin (color reaction on biopsy slices); format: in vivo; conditions: human
Source text: The essential condition is the existence of a specific detection method, which can be used to visualize the presence of particular sunscreen component. In case of quercetin one can take advantage of the existence of ortho dihydroxybenzene (catechol) configuration on the benzene ring B. Different colorimetric methods for catechols have been described. We choose the reaction described in J. Invest Dermatol., 70:197, 1978, (S. Pavel et al.).
Skin penetration study were executed using the following preparations:
1. Quercetin (1%) in cremor cetomacrogolis FNA (CMC)
2. Querceti-gelatin (small molecular weight fraction) (10-20%) in CMC.
3. Quercetin-gelatin (large molecular weight fraction) (10-20%) in CMC.
4. Catechol (1%) (as a penetration marker) in CMC.
The preparations were applied to the skin (buttocks) of three volunteers. The penetration times were 30 min, 1 hour and 3 hours. After each penetration time a biopsy (4 mm) was taken after local anesthesia. The biopsy material was frozen in liquid nitrogen and kept for the further analysis.
The biopsy material were cut in consecutive slices of 8 um thick The slices were incubated in a selected solution to achieve the color characteristic of catecholic structures. The depth of penetration was measured visually and expressed as a percentage penetrated epidermis, as follows: […]

[2] = test system: skin of volunteer subjects (skin types III or IV), UV-A radiation; test: UV-A protection test on volunteer subjects (MPD, SPF); format: in vivo, human; conditions: one value per volunteer
Method: The test is performed on volunteer subjects with normal skin types III (Burns moderately, tans gradually) or IV (Burns minimally; tans well). The subjects have no history of photo-sensitivity, are not using systematic medications and have not been exposed to direct sunlight for the previous 6 weeks.
Two test sites of 5×10 cm, each test site divided in 6 sub-sites, are marked on the back of the subjects between the waist line and the shoulder blades. One test site is not treated and therefor unprotected. On the other test site 100 mg sunscreen product is applied uniformly to the skin so that the amount of the UV-absorbing compound applied is about 2 mg per m2. In case of the quercetin-gelatin compound the amount applied is such that also in this case 2 mg/m2 of the linked quercetin is applied, The applied sunscreen is allowed to dry for about 15 minutes.
A series of six doses of UV-A radiation, increasing in energy is applied to each test site using a UV-A Sellas Sun 2000 (irradiance about 50 milliWatt/cm^2 at 30 cm). […]
The MPD (minimal pigmenting dose) of each test site is determined visually after 3 hours of exposure. The MPD is defined as the quantity of radiation energy required to produce the first unambiguous pigmented reaction.
The SPF (Sun protection factor) is calculated as the quotient of […].

[3] = Chelating capacity: free Fe2+ by ion chromatography; format: physicochemical; conditions: test samples a: 1 millimol/l FeSO4 solution mixed 1:1 with test solution, ethanol:water 1:3, 10 minutes at 37° C.; iron alone 0.50
Source text: (§1) The amount of free Fe^2+ and Fe^3+ can be determined by ion-chromatography.
(§2) Gelatin has a very high affinity to Dionex column material that is used in the determination of iron ions. Gelatin will not elute from the column and thereby changes the characteristics of the column so that the separation is not stable. To prevent this a solid state extraction (SPE) column is used to separate the metal ions from the gelatin matrix. After this pretreatment the sample is conservated with 10 millimolar hydrochloric acid. The sample is then injected into the ion-chromatograph. The metal-ions form a complex with the pyridine-2,6-dicarboxylic acid (PDCA). The complexed iron ions are then separated by their differences in affinity to the column material, which has as well anion as cation characteristics (mixed mode). […] The signals obtained at the retention times known for Fe^2+ and Fe^3+ are proportional to the concentrations, which are calculated from a calibration curve.
(§3) A Dionex OnGuard-RP P/N 039595 column was conditioned with 5 ml methanol and 10 ml de-ionized water. […] 5 ml of the eluate is quantitatively pipetted into a 10 ml volumetric flask and 20 mM hydrochloric acid was added up to 10.00 ml. […]
(§4) In the same way, test samples 1b, 2b, 3b and 4b were prepared with Fe2(SO4)3 instead of FeSO4. […] The amounts of free Fe^2+ or Fe^3+ were determined by the method described above.

[4] = Chelating capacity: free Fe3+ by ion chromatography; format: physicochemical; conditions: test samples b: Fe2(SO4)3 instead of FeSO4, mixed 1:1 with test solution, 10 minutes at 37° C.; iron alone 0.50
Source text: as §1, §2, §3, §4

| Compound | Penetration depth, percentage penetrated epidermis ([1]; 30 min) [%] | Penetration depth, percentage penetrated epidermis ([1]; 1 h) [%] | Penetration depth, percentage penetrated epidermis ([1]; 3 h) [%] | MPD (minimal pigmenting dose), protected ([2]; protected test site, about 2 mg per m2 UV-absorbing compound (linked quercetin) applied, UV-A doses 33 to 8 joule/cm^2, determined visually after 3 hours) | SPF (Sun protection factor) ([2]; quotient of the MPDs of protected and unprotected skin, UV-A) | Amount of free Fe^2+ [3] [millimol per liter] | Amount of free Fe^3 [4] [millimol per liter] |
| --- | --- | --- | --- | --- | --- | --- | --- |
| Oc1ccccc1O [Catechol (1%), Catechol] | 40 | 60 | 90 | – | – | – | – |
| O=c1c(O)c(-c2ccc(O)c(O)c2)oc2cc(O)cc(O)c12 [Quercetin, quercetin] | 30 | 50 | 80 | 14 Joule/cm^2 and 19 Joule/cm^2 | 1.8 and 2.4 | 0.16 | 0.20 |
